Molecular target: T1, STK22D (TSSK1) (Homo sapiens, UniProt Q9BXA7)
T1 construct: purchased Thermo Fisher Scientific (Life Technologies) SelectScreen
Experiment: SelectScreen Z'LYTE
Type: biochemical
How it was run: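 NU5455 was profiled across the SelectScreen Broad panel of kinase activity and binding assays. Z'LYTE reactions such as CSF1R ran at apparent Km ATP, while the Adapta CAMK1 assay used ATP listed as 10. Values are given as percent.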

T1 sequence (Q9BXA7 whole entry): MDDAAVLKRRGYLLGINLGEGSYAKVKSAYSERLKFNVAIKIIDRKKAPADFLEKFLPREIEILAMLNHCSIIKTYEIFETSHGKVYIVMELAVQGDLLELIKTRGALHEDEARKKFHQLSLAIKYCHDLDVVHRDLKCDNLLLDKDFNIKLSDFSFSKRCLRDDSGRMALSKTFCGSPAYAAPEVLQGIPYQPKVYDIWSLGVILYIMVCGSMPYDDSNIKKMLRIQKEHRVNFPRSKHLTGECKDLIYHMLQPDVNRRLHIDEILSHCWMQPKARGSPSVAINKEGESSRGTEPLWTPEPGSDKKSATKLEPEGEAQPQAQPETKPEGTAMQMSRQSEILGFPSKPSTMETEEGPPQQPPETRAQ

Structure (SMILES): CN(C(=O)CN1CCOCC1)c1ccc2sc3c(-c4cccc5c(=O)cc(N6CC7CCC(C6)O7)oc45)cccc3c2c1 [NU5455]
- inhibition at 1 µM: 4.2%

Reference: paper PMC6934184, “Selective DNA-PKcs inhibition extends the therapeutic index of localized radiotherapy and chemotherapy” (The Journal of Clinical Investigation, 2019)
